Values quoted from earlier work in patent US20190307734A1 (Zhuhai Beihai Biotech Co., Ltd., priority 2016, published 2019).

Assays:
[1] = not given; remark: listed apart in the source
CYP 2C9 = CYP 2C9 (Homo sapiens, UniProt P11712); settings: in vitro
CYP 2C19 = CYP 2C19 (Homo sapiens, UniProt P33261); settings: in vitro
CYP 2D6 = CYP 2D6 (Homo sapiens, UniProt P10635); settings: in vitro
[2] = system: cytochrome P450 3A4 (CYP3A4)
p-glycoprotein = p-glycoprotein (Homo sapiens, UniProt P08183); settings: in vitro
Sequence of p-glycoprotein (P08183 whole entry): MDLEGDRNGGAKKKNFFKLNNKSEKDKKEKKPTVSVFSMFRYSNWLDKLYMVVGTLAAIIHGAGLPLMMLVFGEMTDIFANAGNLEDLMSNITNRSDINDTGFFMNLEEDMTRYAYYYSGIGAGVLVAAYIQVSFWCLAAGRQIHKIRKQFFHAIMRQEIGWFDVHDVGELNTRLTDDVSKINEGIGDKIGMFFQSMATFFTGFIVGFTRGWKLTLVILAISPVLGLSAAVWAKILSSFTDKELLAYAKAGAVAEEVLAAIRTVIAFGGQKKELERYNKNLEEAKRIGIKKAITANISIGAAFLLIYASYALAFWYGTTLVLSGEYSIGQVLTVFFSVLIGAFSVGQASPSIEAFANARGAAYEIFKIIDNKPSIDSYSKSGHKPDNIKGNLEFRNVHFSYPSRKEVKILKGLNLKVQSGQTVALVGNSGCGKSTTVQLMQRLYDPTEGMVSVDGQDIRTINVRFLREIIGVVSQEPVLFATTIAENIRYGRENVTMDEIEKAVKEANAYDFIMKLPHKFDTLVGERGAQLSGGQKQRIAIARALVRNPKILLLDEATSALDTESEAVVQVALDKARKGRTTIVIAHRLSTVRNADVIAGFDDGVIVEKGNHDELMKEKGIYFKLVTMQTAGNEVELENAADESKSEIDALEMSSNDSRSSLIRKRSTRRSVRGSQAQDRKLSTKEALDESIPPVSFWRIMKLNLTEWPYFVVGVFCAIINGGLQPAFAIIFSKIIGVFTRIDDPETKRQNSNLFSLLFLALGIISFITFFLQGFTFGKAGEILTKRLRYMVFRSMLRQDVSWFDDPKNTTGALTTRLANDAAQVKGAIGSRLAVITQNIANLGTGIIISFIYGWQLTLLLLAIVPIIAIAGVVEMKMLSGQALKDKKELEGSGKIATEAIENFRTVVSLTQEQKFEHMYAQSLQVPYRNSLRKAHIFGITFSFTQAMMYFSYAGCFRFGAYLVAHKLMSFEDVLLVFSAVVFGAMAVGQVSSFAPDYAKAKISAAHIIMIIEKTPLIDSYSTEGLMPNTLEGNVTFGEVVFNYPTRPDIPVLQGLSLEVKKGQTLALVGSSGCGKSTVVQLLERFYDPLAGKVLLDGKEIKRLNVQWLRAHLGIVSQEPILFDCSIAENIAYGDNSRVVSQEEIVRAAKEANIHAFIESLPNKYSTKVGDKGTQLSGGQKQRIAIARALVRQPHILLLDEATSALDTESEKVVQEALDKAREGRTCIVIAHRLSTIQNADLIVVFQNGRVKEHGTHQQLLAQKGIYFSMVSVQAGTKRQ

Sequence of CYP 2D6 (P10635 whole entry): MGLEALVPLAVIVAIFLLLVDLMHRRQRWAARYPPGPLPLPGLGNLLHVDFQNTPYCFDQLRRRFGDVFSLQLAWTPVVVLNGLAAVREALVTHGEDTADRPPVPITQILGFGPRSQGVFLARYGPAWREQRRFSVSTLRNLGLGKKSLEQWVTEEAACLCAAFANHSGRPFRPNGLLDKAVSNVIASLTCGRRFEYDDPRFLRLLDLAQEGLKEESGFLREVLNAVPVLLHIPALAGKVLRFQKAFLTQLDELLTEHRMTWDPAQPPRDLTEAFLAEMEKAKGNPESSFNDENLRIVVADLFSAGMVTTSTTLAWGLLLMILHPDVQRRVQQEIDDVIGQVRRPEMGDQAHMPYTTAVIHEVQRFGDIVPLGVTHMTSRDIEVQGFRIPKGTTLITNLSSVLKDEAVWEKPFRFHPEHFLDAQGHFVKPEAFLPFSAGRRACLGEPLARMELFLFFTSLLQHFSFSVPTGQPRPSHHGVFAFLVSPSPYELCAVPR
Sequence of CYP 2C9 (P11712 whole entry): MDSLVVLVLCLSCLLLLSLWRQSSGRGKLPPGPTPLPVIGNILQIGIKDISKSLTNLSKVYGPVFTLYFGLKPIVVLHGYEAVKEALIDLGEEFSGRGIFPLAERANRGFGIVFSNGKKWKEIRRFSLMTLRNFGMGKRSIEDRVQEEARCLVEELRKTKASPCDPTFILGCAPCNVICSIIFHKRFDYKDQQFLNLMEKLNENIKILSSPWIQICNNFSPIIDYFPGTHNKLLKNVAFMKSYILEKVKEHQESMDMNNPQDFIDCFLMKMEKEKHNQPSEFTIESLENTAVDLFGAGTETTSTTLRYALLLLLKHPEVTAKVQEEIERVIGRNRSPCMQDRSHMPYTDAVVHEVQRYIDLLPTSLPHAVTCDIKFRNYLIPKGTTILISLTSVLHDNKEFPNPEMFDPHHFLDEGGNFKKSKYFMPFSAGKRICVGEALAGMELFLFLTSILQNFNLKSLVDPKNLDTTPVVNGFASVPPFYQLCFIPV
Sequence of CYP 2C19 (P33261 whole entry): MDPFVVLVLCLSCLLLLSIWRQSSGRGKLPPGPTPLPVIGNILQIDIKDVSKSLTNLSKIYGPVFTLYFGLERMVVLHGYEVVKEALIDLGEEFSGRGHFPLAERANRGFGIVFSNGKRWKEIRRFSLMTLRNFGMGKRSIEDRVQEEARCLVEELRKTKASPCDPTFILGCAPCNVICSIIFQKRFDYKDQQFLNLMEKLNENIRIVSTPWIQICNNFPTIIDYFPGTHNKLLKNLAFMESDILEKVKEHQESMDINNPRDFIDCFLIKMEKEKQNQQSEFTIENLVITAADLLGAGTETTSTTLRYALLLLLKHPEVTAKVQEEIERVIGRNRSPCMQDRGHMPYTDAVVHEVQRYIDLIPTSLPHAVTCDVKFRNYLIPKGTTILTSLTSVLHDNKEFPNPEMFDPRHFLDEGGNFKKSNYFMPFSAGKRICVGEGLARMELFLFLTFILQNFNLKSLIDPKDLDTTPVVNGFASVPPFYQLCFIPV

Structure (SMILES) | solubility in aqueous solution, pH dependence (aqueous solution) | solubility in common pharmaceutical solvents (ethanol, propylene glycol, 40% hydroxypropyl beta cyclodextrin) | absorption after oral dosing [1] | protein bound to human plasma (human plasma) [%] | inhibition of CYP 2C9 (CYP 2C9) | inhibition of CYP 2C19 (CYP 2C19) | inhibition of CYP 2D6 (CYP 2D6) | induction or inhibition of CYP3A4 enzyme ([2]; Hesketh et al., Cancer 2016) | inhibition of CYP 3A4 ([2]; in vitro) | inhibition of p-glycoprotein (p-glycoprotein) | solubility at physiological pH (pH 7.4) [mcg/ml] | solubility in water (water)
C[C@@H](OC[C@@]1(c2ccccc2)CC[C@]2(CCC(=O)N2)CN1)c1cc(C(F)(F)F)cc(C(F)(F)F)c1.Cl [Rolapitant hydrochloride, rolapitant hydrochloride] | pH-dependent and is more soluble at lower pH | good solubility |  |  |  |  |  |  |  |  |  | 
C[C@@H](OC[C@@]1(c2ccccc2)CC[C@]2(CCC(=O)N2)CN1)c1cc(C(F)(F)F)cc(C(F)(F)F)c1 [Rolapitant, rolapitant] |  |  | rapidly absorbed | 99.8 | did not inhibit | did not inhibit | did not inhibit | does not induce or inhibit | did not inhibit | did not inhibit | < 4 | practically insoluble
